The target of one assay is T1, 5-HT2C receptor (Homo sapiens, UniProt P28335).
T1 construct: expressed in transfected cells; host or cells: HEK293T
T1 sequence (P28335 33-458): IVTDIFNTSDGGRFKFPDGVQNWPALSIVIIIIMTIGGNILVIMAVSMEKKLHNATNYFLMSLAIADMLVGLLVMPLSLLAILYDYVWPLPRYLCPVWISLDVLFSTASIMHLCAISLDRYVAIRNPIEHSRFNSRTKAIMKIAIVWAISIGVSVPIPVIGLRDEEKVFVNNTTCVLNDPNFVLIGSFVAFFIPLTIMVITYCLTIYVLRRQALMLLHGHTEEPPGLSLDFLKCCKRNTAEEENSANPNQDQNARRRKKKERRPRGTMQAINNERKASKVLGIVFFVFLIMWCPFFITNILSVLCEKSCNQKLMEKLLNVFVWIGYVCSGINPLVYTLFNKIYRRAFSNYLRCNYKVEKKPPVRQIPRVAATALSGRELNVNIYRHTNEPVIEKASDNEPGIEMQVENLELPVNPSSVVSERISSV
Put plainly: 5-HT2 receptor-mediated Gq activation via Gq/γ1 dissociation BRET (5-HT2C). The class given is cell-based. The settings on record: primary 5-HT2C signaling via Gq-coupled mechanism compared to β-arrestin. The text has this: (§1) To measure 5-HT2 receptor-mediated Gq activation via Gq/y1 dissociation as measured by Bioluminescence Resonance Energy Transfer (BRET) (McCorvy J D, Wacker D, Wang S, Agegnehu B, Liu J, Lansu K, Tribo A R, Olsen R H J, Che T, Jin J, Roth B L. Structural determinants of 5-HT2B receptor activation and biased agonism. Nat Struct Mol Biol. 2018; 25(9): 787-96), HEK293T cells were sub-cultured in Dulbecco's Modified Eagle Medium (DMEM) supplemented with 10% dialyzed fetal bovine serum (FBS) and were co-transfected in a 1:1:1:1 ratio with Rluc8-fused human Gaq (Gaq-Rluc8), a GFP2-fused to the C-terminus of human Gy1(Gy1-GFP2), human G131, and 5-HT2 receptor using TransiT-2020. After at least 18-24 hours, transfected cells were plated in poly-lysine coated 96-well white clear bottom cell culture plates in DMEM containing 1% dialyzed FBS at a density of 25,000-40,000 cells in 200 μL per well and incubated overnight. The following day, medium was decanted, and cells were washed with 60 μL of drug buffer (1×HBSS, 20 mM HEPES, pH 7.4), then 60 μL of drug buffer was added per well. Cells were pre-incubated at in a humidified atmosphere at 37° C. before receiving drug stimulation. […] Substrate addition occurred 15 minutes before reading and utilized 10 μL of the Rluc substrate coelenterazine 400a for Gq dissociation BRET^2 (Prolume/Nanolight, 5 μM final concentration). Plates were read for luminescence at 400 nm and fluorescent GFP2 emission at 510 nm at 1 second per well using a Mithras LB940 multimode microplate reader (e.g. one provided by Berthold). The BRET ratios of fluorescence/luminescence were calculated per well and were plotted as a function of drug concentration using Graphpad Prism 8 (Graphpad Software Inc., San Diego, CA). Data were normalized to % 5-HT stimulation and analyzed using nonlinear regression “log(agonist) vs. response” to yield Emax and EC50 parameter estimates. […]
For orientation: BRET reads energy transfer from a luciferase to a nearby fluorophore.

Another assay has as its target T2, 5-HT2A receptor (Homo sapiens, UniProt P28223).
T2 construct: expressed in transfected cells; host or cells: HEK293T
Put plainly: 5-HT2 receptor-mediated Gq activation via Gq/γ1 dissociation BRET (5-HT2A). The class given is cell-based. The following applies: predicted based on the level of 5-HT2A agonist efficacy.
Source text: as §1

Structures are written as SMILES.

Data on 3 compounds can be found in patent publication US20260216101A1, “Selective Serotonin Receptor Modulators and Methods of Making and Using the Same” (Park City Bio, LLC, priority 2024, published 2026).

T2 sequence (P28223 whole entry): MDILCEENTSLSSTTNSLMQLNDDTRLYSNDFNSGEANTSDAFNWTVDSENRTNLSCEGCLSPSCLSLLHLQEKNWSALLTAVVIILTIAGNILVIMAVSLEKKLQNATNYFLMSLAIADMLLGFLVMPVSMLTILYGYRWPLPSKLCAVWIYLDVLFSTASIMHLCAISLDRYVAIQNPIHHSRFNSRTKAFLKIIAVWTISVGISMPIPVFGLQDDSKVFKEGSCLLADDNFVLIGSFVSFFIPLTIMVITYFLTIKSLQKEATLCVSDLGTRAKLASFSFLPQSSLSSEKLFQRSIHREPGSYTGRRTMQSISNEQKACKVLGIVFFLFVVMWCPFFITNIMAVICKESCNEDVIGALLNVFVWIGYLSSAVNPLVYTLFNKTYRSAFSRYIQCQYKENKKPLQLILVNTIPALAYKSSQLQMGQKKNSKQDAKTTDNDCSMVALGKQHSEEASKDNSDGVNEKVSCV

On to `CNCC1CC1c1cc(F)ccc1SC` (stereo not drawn), for which, at 5-HT2C receptor, the “5-HT2C Gq signaling bias?” value is “Yes”. In addition, the “Hall or N-Hall? (hallucinogenic or non-hallucinogenic plastogenic effect)” value at 5-HT2A receptor is reported as “N-Hall”.

Take `CSc1ccc(F)cc1C1CC1CN(C)C` (stereo not drawn): on 5-HT2C receptor, the “5-HT2C Gq signaling bias?” value is given as “Yes”. In addition, the “Hall or N-Hall? (hallucinogenic or non-hallucinogenic plastogenic effect)” value at 5-HT2A receptor is given as “N-Hall”.

For `CNC[C@H]1C[C@@H]1c1cc(F)ccc1OC`, the “5-HT2C Gq signaling bias?” value on 5-HT2C receptor is “Yes”. Moreover, on 5-HT2A receptor, the “Hall or N-Hall? (hallucinogenic or non-hallucinogenic plastogenic effect)” value was “N-Hall”.
